Legend:
[1] = target: STE20-like serine/threonine-protein kinase (Homo sapiens) (UniProt Q9H2G2); assay: Residual activity of human SLK/STK2 using histone H3 as substrate at 1 uM in presence of 32P-ATP by Hotspot assay relative to control
[2] = target: Mitogen-activated protein kinase 10 (Homo sapiens) (UniProt P53779); assay: Inhibition of human JNK3 using ATF2 as substrate at 1 uM in presence of 32P-ATP by Hotspot assay relative to control; values are per cent of control
[3] = target: Serine/threonine-protein kinase PLK1 (Homo sapiens) (UniProt P53350); assay: Inhibition of human PLK1 using casein as substrate at 1 uM in presence of 32P-ATP by Hotspot assay relative to control; values are per cent of control
[4] = target: Calcium/calmodulin-dependent protein kinase type 1D (Homo sapiens) (UniProt Q8IU85); assay: Inhibition of human CAMK1d using KKALRRQETVDAL as substrate at 1 uM in presence of 32P-ATP by Hotspot assay relative to control; values are per cent of control
[5] = target: Tyrosine-protein kinase Fgr (Homo sapiens) (UniProt P09769); assay: Inhibition of human FGR using poly[Glu:Tyr] (4:1) as substrate at 1 uM in presence of 32P-ATP by Hotspot assay relative to control; values are per cent of control
[6] = target: Tyrosine-protein kinase Fyn (Homo sapiens) (UniProt P06241); assay: Inhibition of human FYN using poly[Glu:Tyr] (4:1) as substrate at 1 uM in presence of 32P-ATP by Hotspot assay relative to control; values are per cent of control
[7] = target: T1, Tyrosine-protein kinase Tec (Homo sapiens) (UniProt P42680); assay: Inhibition of human TEC using poly[Glu:Tyr] (4:1) as substrate at 1 uM in presence of 32P-ATP by Hotspot assay relative to control; values are per cent of control
T1 sequence (whole entry): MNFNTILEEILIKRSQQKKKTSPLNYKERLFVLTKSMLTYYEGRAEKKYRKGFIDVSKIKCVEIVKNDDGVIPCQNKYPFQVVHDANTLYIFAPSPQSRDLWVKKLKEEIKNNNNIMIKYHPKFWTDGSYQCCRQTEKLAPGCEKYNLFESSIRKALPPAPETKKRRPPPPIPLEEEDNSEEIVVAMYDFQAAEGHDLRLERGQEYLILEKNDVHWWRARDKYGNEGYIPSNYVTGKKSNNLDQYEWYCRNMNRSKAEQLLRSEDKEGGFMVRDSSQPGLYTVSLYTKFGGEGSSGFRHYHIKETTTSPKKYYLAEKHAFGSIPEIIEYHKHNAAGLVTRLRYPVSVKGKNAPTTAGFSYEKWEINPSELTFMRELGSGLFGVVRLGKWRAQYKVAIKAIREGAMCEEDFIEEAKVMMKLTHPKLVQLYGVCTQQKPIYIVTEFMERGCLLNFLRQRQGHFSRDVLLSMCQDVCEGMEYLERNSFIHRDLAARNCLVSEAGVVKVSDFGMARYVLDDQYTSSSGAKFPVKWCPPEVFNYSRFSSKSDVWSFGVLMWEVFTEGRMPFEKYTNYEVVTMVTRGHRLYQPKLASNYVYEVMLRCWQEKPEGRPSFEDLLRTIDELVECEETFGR

[8] = target: Mitogen-activated protein kinase 3 (Homo sapiens) (UniProt P27361); assay: Inhibition of human ERK1 using myelin basic protein as substrate at 1 uM in presence of 32P-ATP by Hotspot assay relative to control; values are per cent of control
[9] = target: Receptor tyrosine-protein kinase erbB-4 (Homo sapiens) (UniProt Q15303); assay: Inhibition of human ERBB4/HER4 using poly[Glu:Tyr] (4:1) as substrate at 1 uM in presence of 32P-ATP by Hotspot assay relative to control; values are per cent of control
[10] = target: Mitogen-activated protein kinase kinase kinase 11 (Homo sapiens) (UniProt Q16584); assay: Inhibition of human MLK3/MAP3K11 using myelin basic protein as substrate at 1 uM in presence of 32P-ATP by Hotspot assay relative to control; values are per cent of control
Mitogen-activated protein kinase kinase kinase 11 (Homo sapiens), sequence (Q16584 whole entry, looked up): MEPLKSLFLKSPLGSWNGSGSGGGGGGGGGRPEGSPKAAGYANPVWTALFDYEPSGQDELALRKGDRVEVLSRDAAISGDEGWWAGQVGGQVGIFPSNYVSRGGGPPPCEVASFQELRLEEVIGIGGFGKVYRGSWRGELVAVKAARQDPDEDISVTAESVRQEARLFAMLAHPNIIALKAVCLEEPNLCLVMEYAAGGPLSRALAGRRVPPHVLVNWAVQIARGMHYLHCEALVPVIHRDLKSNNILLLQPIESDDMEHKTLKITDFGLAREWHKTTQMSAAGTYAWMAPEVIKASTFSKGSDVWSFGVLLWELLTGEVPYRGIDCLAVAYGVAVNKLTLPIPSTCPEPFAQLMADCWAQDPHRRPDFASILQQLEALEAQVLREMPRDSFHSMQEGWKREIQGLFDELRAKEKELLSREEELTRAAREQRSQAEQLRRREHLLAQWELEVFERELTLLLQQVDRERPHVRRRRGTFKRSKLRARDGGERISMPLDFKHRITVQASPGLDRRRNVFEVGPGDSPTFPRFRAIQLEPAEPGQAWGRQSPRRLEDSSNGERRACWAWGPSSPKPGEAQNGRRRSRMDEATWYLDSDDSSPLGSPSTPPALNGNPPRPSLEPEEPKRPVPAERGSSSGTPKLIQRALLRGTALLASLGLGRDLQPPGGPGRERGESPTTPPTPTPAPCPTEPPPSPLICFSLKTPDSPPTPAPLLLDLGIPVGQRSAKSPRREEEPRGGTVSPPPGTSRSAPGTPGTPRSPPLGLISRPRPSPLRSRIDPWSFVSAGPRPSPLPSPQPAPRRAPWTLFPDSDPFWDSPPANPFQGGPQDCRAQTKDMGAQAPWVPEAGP

Calcium/calmodulin-dependent protein kinase type 1D (Homo sapiens), sequence (Q8IU85 whole entry, looked up): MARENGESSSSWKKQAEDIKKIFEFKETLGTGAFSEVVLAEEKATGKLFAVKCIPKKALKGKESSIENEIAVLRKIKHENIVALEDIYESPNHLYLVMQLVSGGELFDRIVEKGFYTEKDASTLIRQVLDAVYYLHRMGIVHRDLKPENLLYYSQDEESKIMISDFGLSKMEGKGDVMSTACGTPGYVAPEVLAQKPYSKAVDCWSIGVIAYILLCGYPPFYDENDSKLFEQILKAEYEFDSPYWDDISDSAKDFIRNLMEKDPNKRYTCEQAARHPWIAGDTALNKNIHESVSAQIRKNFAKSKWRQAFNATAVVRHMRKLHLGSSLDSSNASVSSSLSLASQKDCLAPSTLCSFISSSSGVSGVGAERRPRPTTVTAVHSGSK
Mitogen-activated protein kinase 3 (Homo sapiens), sequence (P27361 whole entry): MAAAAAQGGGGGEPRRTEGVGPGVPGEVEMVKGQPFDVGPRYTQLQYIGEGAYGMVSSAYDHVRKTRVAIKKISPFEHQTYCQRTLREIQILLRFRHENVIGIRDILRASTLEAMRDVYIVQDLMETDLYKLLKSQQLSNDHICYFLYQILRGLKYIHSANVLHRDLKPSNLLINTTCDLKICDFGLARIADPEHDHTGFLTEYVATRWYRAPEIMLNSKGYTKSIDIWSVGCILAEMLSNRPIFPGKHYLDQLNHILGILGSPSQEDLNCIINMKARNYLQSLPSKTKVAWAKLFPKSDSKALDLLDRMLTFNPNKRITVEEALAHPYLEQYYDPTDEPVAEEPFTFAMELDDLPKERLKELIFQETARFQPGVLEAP
Receptor tyrosine-protein kinase erbB-4 (Homo sapiens), sequence (Q15303 whole entry): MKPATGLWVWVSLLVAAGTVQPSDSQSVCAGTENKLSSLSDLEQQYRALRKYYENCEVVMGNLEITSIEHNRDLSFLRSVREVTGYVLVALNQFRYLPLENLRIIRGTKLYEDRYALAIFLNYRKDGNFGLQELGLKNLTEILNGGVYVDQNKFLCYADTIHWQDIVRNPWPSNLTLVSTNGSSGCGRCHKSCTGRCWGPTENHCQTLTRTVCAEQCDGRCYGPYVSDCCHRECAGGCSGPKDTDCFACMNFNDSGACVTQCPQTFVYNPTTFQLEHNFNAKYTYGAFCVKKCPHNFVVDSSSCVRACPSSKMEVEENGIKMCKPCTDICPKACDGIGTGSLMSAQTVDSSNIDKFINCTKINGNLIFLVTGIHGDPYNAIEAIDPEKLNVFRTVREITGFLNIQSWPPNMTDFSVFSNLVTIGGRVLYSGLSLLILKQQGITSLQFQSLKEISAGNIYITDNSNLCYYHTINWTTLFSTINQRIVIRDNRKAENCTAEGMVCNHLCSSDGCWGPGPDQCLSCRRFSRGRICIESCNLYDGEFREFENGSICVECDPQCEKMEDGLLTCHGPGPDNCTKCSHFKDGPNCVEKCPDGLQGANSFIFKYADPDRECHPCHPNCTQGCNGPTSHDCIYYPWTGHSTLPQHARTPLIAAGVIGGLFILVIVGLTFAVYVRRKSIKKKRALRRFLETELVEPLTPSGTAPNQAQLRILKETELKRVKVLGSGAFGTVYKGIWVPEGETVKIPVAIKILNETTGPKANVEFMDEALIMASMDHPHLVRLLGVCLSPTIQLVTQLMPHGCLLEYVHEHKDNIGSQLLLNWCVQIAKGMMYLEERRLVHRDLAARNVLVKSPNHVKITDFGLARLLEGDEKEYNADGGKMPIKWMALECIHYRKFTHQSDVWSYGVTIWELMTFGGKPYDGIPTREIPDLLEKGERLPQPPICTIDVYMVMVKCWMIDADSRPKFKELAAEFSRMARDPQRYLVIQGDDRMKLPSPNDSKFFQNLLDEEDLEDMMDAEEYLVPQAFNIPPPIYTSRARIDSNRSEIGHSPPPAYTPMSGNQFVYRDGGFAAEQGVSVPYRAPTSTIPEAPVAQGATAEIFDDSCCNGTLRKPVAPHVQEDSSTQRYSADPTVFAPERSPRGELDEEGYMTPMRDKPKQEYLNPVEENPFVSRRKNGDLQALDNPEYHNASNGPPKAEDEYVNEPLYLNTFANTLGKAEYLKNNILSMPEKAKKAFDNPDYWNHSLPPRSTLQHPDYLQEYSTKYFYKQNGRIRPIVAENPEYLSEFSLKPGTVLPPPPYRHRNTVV
Serine/threonine-protein kinase PLK1 (Homo sapiens), sequence (P53350 whole entry): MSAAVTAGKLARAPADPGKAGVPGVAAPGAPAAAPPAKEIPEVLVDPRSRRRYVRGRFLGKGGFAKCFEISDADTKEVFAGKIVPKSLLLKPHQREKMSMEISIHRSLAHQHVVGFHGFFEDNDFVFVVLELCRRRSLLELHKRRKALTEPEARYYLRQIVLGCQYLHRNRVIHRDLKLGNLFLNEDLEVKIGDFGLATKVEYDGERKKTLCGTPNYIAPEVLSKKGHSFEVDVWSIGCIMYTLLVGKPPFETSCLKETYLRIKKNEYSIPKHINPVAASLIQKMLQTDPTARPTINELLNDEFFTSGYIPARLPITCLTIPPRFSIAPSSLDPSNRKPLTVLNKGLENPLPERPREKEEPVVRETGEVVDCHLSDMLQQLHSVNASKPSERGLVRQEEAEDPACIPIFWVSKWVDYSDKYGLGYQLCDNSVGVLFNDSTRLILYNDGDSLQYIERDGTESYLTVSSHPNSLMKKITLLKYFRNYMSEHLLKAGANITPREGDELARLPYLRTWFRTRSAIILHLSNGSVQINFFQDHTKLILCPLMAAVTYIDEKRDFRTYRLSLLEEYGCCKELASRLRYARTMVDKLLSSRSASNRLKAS
Mitogen-activated protein kinase 10 (Homo sapiens), sequence (P53779 whole entry): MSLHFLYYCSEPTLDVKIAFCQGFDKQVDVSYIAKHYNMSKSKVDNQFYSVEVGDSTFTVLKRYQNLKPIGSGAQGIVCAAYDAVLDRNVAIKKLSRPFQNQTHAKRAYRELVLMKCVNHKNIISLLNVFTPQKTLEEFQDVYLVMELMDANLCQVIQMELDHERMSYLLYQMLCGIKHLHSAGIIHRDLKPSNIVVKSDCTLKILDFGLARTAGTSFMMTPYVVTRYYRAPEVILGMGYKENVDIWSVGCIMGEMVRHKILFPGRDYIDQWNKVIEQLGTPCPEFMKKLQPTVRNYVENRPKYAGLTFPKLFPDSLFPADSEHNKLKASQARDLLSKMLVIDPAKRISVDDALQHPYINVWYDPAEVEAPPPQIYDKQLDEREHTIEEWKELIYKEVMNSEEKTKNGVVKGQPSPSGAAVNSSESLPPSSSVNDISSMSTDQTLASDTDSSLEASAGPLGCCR
Tyrosine-protein kinase Fgr (Homo sapiens), sequence (P09769 2-529 limits assumed): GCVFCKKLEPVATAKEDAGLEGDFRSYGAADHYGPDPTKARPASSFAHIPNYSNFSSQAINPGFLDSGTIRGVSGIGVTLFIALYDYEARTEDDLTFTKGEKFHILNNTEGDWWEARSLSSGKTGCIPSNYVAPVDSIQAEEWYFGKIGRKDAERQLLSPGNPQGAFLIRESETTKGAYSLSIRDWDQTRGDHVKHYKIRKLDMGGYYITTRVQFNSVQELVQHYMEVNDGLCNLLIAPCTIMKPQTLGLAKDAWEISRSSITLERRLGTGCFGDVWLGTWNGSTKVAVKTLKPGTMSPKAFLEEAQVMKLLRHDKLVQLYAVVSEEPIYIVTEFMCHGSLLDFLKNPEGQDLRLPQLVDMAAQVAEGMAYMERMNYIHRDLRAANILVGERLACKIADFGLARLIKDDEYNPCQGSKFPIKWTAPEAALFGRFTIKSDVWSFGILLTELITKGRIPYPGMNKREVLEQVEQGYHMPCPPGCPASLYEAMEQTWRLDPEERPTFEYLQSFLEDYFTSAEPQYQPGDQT
Tyrosine-protein kinase Fyn (Homo sapiens), sequence (P06241 2-537 limits assumed): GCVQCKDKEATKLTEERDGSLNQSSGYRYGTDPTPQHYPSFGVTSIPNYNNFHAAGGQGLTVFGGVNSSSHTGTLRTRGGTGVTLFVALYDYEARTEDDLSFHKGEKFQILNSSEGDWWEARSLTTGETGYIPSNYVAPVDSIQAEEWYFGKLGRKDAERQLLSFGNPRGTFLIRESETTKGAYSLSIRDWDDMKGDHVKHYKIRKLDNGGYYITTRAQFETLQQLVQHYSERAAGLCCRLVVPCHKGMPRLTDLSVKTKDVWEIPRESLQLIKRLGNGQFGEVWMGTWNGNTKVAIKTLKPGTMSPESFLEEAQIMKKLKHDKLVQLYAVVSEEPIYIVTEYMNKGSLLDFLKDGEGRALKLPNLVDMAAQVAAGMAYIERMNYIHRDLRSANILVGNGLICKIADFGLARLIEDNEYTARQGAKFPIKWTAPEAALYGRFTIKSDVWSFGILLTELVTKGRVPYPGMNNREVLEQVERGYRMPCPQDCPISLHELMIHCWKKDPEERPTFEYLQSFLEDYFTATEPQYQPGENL

Compound	residual activity [1]	residual activity [2]	residual activity [3]	residual activity [4]	residual activity [5]	residual activity [6]	residual activity [7]	residual activity [8]	residual activity [9]	residual activity [10]
CC(C)S(=O)(=O)c1ccc2nccc(Nc3ccc4scnc4c3)c2c1	87.8%	106%	95.4%	99%	28.5%	18%	99.8%	89.9%	89.3%	81.1%
Cc1cc(-c2cnc(N)c3c(-c4ccc5scnc5c4)csc23)n(C)n1	94.6%	85.9%	98.6%	97.8%	22.2%	5.73%	89.7%	93.3%	98.4%	69.5%
CNC(=O)c1ccc2c(c1)ncn2-c1ccc(CC(=O)OC(C)(C)C)cc1	92.1%	104%	103%	99.1%	37.6%	79.4%	93.1%	94.7%	93.8%	85.4%

From ChEMBL document CHEMBL5649166, “RIP3 induces apoptosis independent of pronecrotic kinase activity” (Mol Cell, 2014)
